Test results reported in ChEMBL document CHEMBL4811216, “Chemotherapy for human schistosomiasis: how far have we come? What's new? Where do we go from here?” (RSC Med Chem, 2020).
One block for each compound: values may come before it.

Key:
Schistosoma mansoni [1] = experiment: Antischistosomal activity against Schistosoma mansoni Puerto-Rican incubated for 72 hrs by inverted microscopic method; assay type: functional, organism-based
Schistosoma mansoni [2] = experiment: Antischistosomal activity against Schistosoma mansoni infected in NMRI mouse assessed as worm burden reduction at 400 mg/kg, po administered […] for 4 consecutive days and measured after 14 days relative to control; assay type: functional; design: scale not given: the % may be the effect or the level left; conditions: time 14 day
Schistosoma mansoni [3] = experiment: microbe, parasite or virus in culture; conditions: Liberian, 72 h
Description: Antischistosomal activity against Schistosoma mansoni Liberian NTS incubated for 72 hrs by microscopic method

Schistosoma mansoni [4] = experiment: Antischistosomal activity against Schistosoma mansoni infected in NMRI mouse assessed as worm burden reduction at 200 mg/kg, po administered as single dose and measured after 17 to 21 days relative to control; assay type: functional, organism-based; design: scale not given: the % may be the effect or the level left; conditions: time 17-21 day
Schistosoma haematobium = experiment: Antischistosomal activity against Schistosoma haematobium at 10 uM measured after 72 hrs relative to control; assay type: functional
Schistosoma mansoni [5] = experiment: microbe, parasite or virus in culture; conditions: 72 h
Description: Antischistosomal activity against Schistosoma mansoni incubated for 72 hrs by inverted microscopic method

Schistosoma mansoni [6] = experiment: Antischistosomal activity against adult Schistosoma mansoni LE assessed as reduction in motor activity at 50 uM measured after 24 hrs by inverted microscopy relative to control; assay type: functional; design: scale not given: the % may be the effect or the level left
[7] = Cytotoxicity against Biomphalaria alexandrina incubated for 24 hrs relative to control; design: concentration or dose not given beside the values
[8] = Cytotoxicity against Biomphalaria alexandrina incubated for 24 hrs
Schistosoma mansoni [9] = experiment: Antischistosomal activity against Schistosoma mansoni Puerto Rican schistosomula assessed as effect on worm motility measured after 72 hrs; assay type: functional, organism-based
Schistosoma mansoni [10] = experiment: Antischistosomal activity against Schistosoma mansoni Puerto Rican schistosomula assessed as effect on worm phenotype measured after 72 hrs; assay type: functional, organism-based
Schistosoma mansoni [11] = experiment: Antischistosomal activity against Schistosoma mansoni Liberian infected in NMRI mouse assessed as worm burden reduction at 200 mg/kg, po measured after 14 days relative to control; assay type: functional; design: scale not given: the % may be the effect or the level left; conditions: time 14 day
[12] = molecular target: HDAC1 (histone deacetylase 1) (Homo sapiens, UniProt Q13547); experiment: Inhibition of human HDAC1 using Z-Lys(Ac)-AMC as substrate at 1 uM by fluorimetric method relative to control; conditions: HDAC1 enzyme, probe Z-Lys(Ac)-AMC
Chain of HDAC1 (histone deacetylase 1) (Q13547 whole entry): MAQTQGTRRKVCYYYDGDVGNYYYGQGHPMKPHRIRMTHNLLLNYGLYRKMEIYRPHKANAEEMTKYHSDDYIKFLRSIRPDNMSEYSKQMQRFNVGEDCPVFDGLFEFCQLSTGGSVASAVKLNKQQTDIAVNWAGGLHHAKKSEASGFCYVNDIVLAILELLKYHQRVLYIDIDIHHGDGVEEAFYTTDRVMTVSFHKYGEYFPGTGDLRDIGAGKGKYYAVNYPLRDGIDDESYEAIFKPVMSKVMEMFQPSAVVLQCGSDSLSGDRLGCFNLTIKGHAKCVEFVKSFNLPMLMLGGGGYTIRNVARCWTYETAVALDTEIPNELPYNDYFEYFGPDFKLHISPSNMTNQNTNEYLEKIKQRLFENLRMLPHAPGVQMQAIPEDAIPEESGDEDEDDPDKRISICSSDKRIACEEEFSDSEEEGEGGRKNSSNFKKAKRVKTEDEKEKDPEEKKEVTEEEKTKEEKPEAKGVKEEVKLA

Schistosoma mansoni [13] = experiment: Antischistosomal activity against Schistosoma mansoni assessed as worm mortality at 5 ug/ml incubated for 5 days by stereomicroscopic method relative to control; assay type: functional; conditions: 120 h, time 5 day
Schistosoma mansoni [14] = experiment: Antischistosomal activity against Schistosoma mansoni Puerto-Rican assessed as worm mortality incubated for 5 days by stereomicroscopic method; assay type: functional, organism-based; conditions: 120 h; for IC90: time 5 day
Schistosoma mansoni [15] = experiment: Antischistosomal activity against Schistosoma mansoni Egyptian assessed as worm mortality incubated for 5 days by stereomicroscopic method; assay type: functional, organism-based; conditions: 120 h; for IC90: time 5 day

IC50 (Schistosoma mansoni [1]): 0.8 µM | IC50 (Schistosoma mansoni [3]): 2.7 µM
Structure (SMILES): COc1ccc(Nc2nc(NCc3ccccc3)c3ccccc3n2)cc1
Activity (Schistosoma mansoni [2]): 0%

IC50 (Schistosoma mansoni [3]): 0.6 µM | IC50 (Schistosoma mansoni [5]): 2 µM
Structure (SMILES): O=C(Nc1ccc(N2CCNCC2)cc1)c1ccn2ncc(-c3cccc(Cl)c3)c2n1
Activity (Schistosoma mansoni [4]): 70.7% | Activity (Schistosoma haematobium): 100%

IC50 (Schistosoma mansoni [3]): 2.6 µM | IC50 (Schistosoma mansoni [5]): 3 µM
Structure (SMILES): CN1CCC(NCc2cccc(-c3ccc(S(=O)(=O)NCc4ccccc4)cc3)c2)CC1
Activity (Schistosoma mansoni [4]): 67.8% | Activity (Schistosoma haematobium): 75.4%

Structure (SMILES): O[C@@H]1OC[C@@H](Cc2ccc3c(c2)OCO3)[C@@H]1Cc1ccc2c(c1)OCO2
Activity (Schistosoma mansoni [6]): >75%

Structure (SMILES): CCN1CCCC1CNc1c2c3ccccc3nc-2n(C)c2ccc(Cl)cc12 (stereo not drawn)
mortality [7]: 100% | LC50 [8]: 2.95 µM | LC90 [8]: 4.1 µM

IC50 (Schistosoma mansoni [9]): < 10 µM | IC50 (Schistosoma mansoni [10]): < 10 µM
Structure (SMILES): CC1(C)CCC[C@]2(C)C(CC[C@@](C)(O)/C=C/c3cccc(Cl)c3)[C@](C)(O)CC[C@@H]12 (stereo partly drawn)

IC50 (Schistosoma mansoni [1]): 3.4 µM | IC50 (Schistosoma mansoni [3]): 1.8 µM
Structure (SMILES): O=C(CCl)NCCOc1ccc(Cl)cc1Cl
Activity (Schistosoma mansoni [2]): 1.8%

Structure (SMILES): O[C@@H](c1cc(-c2ccc(C(F)(F)F)cc2)nc(C(F)(F)F)c1)[C@@H]1CCCCN1
Activity (Schistosoma mansoni [11]): >82%

IC50 (Schistosoma mansoni [3]): 4.7 µM
Structure (SMILES): O=C(Nc1ccc(Cl)c(Cl)c1)Nc1ccc(Cl)c(Cl)c1
Activity (Schistosoma mansoni [2]): 52.5%

IC50 (Schistosoma mansoni [1]): 0.8 µM
Structure (SMILES): Brc1ccc(Nc2nc3ccccc3nc2Nc2ccc(Br)cc2)cc1
Activity (Schistosoma mansoni [2]): 40.8%

IC50 (Schistosoma mansoni [9]): < 10 µM | IC50 (Schistosoma mansoni [10]): < 10 µM
Structure (SMILES): CC1(C)CCC[C@]2(C)C(CC[C@@](C)(O)/C=C/c3ccc(Cl)cc3)[C@](C)(O)CC[C@@H]12 (stereo partly drawn)

IC50 (Schistosoma mansoni [3]): 16.7 µM | IC50 (Schistosoma mansoni [5]): 7.9 µM
Structure (SMILES): COc1ccc(Oc2ccc([C@H](C)N(C)c3ncc4c(N)nc(N)nc4n3)cc2)cc1
Activity (Schistosoma mansoni [4]): 32.8% | Activity (Schistosoma haematobium): 50.9%

IC50 (Schistosoma mansoni [9]): < 10 µM | IC50 (Schistosoma mansoni [10]): < 10 µM
Structure (SMILES): CC1(C)CCC[C@]2(C)C(CC[C@@](C)(O)/C=C/c3ccccc3)[C@](C)(O)CC[C@@H]12 (stereo partly drawn)

Structure (SMILES): O[C@H](c1cc(-c2ccc(C(F)(F)F)cc2)nc(C(F)(F)F)c1)[C@H]1CCCCN1
Activity (Schistosoma mansoni [11]): >82%

inhibition at 1 µM [12]: < 10%
Structure (SMILES): O=C(NO)c1cccc(C(=O)NOCc2ccc(F)c(F)c2)c1

IC50 (Schistosoma mansoni [1]): 6.3 µM | IC50 (Schistosoma mansoni [3]): 3.4 µM
Structure (SMILES): Clc1cc(Br)ccc1-c1ccc(CNCC2CCNCC2)o1
Activity (Schistosoma mansoni [2]): 18.7%

Structure (SMILES): Cn1c2nc3ccccc3c-2c(N2CCN(CCO)CC2)c2cc(Cl)ccc21
mortality [7]: 100% | LC50 [8]: 3.9 µM | LC90 [8]: 4.8 µM | mortality at 5 µg/mL (Schistosoma mansoni [13]): 100% | IC50 (Schistosoma mansoni [14]): 3.29 µM | IC90 (Schistosoma mansoni [14]): 5.57 µM | IC50 (Schistosoma mansoni [15]): 1.77 µM | IC90 (Schistosoma mansoni [15]): 4.55 µM

inhibition at 1 µM [12]: < 10%
Structure (SMILES): O=C(NO)c1cccc(C(=O)NNc2ccccc2)c1

IC50 (Schistosoma mansoni [3]): 0.4 µM | IC50 (Schistosoma mansoni [5]): 3.7 µM
Structure (SMILES): CS(=O)(=O)c1ccc(C(=O)N(CC2CCCO2)c2nc3ccccc3s2)cc1[N+](=O)[O-] (stereo not drawn)
Activity (Schistosoma mansoni [4]): 55.2% | Activity (Schistosoma haematobium): 90.8%

IC50 (Schistosoma mansoni [9]): 12.3 µM | IC50 (Schistosoma mansoni [10]): 14.2 µM
Structure (SMILES): C=C[C@](C)(O)CCC1[C@](C)(O)CC[C@H]2C(C)(C)CCC[C@]12C (stereo partly drawn)

Structure (SMILES): Cn1c2nc3ccccc3c-2c(N2CCC(N3CCCCC3)CC2)c2cc(Cl)ccc21
mortality [7]: 100% | LC50 [8]: 2.6 µM | LC90 [8]: 3.5 µM | mortality at 5 µg/mL (Schistosoma mansoni [13]): 100% | IC50 (Schistosoma mansoni [14]): 7.85 µM | IC90 (Schistosoma mansoni [14]): 13.4 µM | IC50 (Schistosoma mansoni [15]): 3.46 µM | IC90 (Schistosoma mansoni [15]): 8.31 µM

Structure (SMILES): Cn1c2nc3ccccc3c-2c(NCCN2CCOCC2)c2cc(Cl)ccc21
mortality [7]: 100% | LC50 [8]: 1.3 µM | LC90 [8]: 2.2 µM | mortality at 5 µg/mL (Schistosoma mansoni [13]): 100% | IC50 (Schistosoma mansoni [14]): 3.54 µM | IC90 (Schistosoma mansoni [14]): 6.83 µM | IC50 (Schistosoma mansoni [15]): 1.26 µM | IC90 (Schistosoma mansoni [15]): 4.05 µM

Structure (SMILES): CCN(CC)CCCC(C)Nc1c2c3ccccc3nc-2n(C)c2ccc(Cl)cc12 (stereo not drawn)
mortality at 5 µg/mL (Schistosoma mansoni [13]): 100% | IC50 (Schistosoma mansoni [14]): 15 µM | IC90 (Schistosoma mansoni [14]): 21.7 µM | IC50 (Schistosoma mansoni [15]): 11.7 µM | IC90 (Schistosoma mansoni [15]): 16.8 µM

Structure (SMILES): COc1cc(C[C@@H]2C(=O)OC[C@H]2Cc2ccc3c(c2)OCO3)cc(OC)c1OC
Activity (Schistosoma mansoni [6]): >75%

Structure (SMILES): CN(C)CCNc1c2c3ccccc3nc-2n(C)c2ccc(Cl)cc12
mortality [7]: 100% | LC50 [8]: 1.47 µM | LC90 [8]: 2.12 µM | mortality at 5 µg/mL (Schistosoma mansoni [13]): 100% | IC50 (Schistosoma mansoni [14]): 5.95 µM | IC90 (Schistosoma mansoni [14]): 13 µM | IC50 (Schistosoma mansoni [15]): 3.68 µM | IC90 (Schistosoma mansoni [15]): 7.65 µM

Structure (SMILES): Cn1c2nc3ccccc3c-2c(NCCN2CCCC2)c2cc(Cl)ccc21
mortality [7]: 100% | LC50 [8]: 1.74 µM | LC90 [8]: 2.64 µM

Structure (SMILES): OC(c1cc(-c2ccc(C(F)(F)F)cc2)nc(C(F)(F)F)c1)C1CCCCN1 (stereo not drawn) [ENPIROLINE]
Activity (Schistosoma mansoni [11]): >82%

inhibition at 1 µM [12]: < 10%
Structure (SMILES): O=C(NO)c1cccc(C(=O)NOCc2ccccc2)c1

Structure (SMILES): Clc1ccc2nc3[nH]c4ccccc4c3c(NCCN3CCOCC3)c2c1
mortality at 5 µg/mL (Schistosoma mansoni [13]): 100% | IC50 (Schistosoma mansoni [14]): 7.61 µM | IC90 (Schistosoma mansoni [14]): 11 µM | IC50 (Schistosoma mansoni [15]): 3.41 µM | IC90 (Schistosoma mansoni [15]): 6.3 µM

Structure (SMILES): O=C1OC[C@@H](Cc2ccc3c(c2)OCO3)[C@@H]1Cc1ccc2c(c1)OCO2
Activity (Schistosoma mansoni [6]): >75%

inhibition at 1 µM [12]: < 10%
Structure (SMILES): Cc1ccc(CONC(=O)c2cccc(C(=O)NO)c2)cc1

Structure (SMILES): CCN(CC)CCCC(C)Nc1c2c3ccccc3nc-2n(C)c2cc(Cl)ccc12 (stereo not drawn)
mortality at 5 µg/mL (Schistosoma mansoni [13]): 100% | IC50 (Schistosoma mansoni [14]): 29.3 µM | IC90 (Schistosoma mansoni [14]): 32.8 µM | IC50 (Schistosoma mansoni [15]): 19.3 µM | IC90 (Schistosoma mansoni [15]): 24.3 µM

Structure (SMILES): CN1CCN(c2c3cc(Cl)ccc3nc3[nH]c4ccccc4c23)CC1
mortality [7]: 100% | LC50 [8]: 0.63 µM | LC90 [8]: 0.91 µM | mortality at 5 µg/mL (Schistosoma mansoni [13]): 100% | IC50 (Schistosoma mansoni [14]): 6.27 µM | IC90 (Schistosoma mansoni [14]): 17.9 µM | IC50 (Schistosoma mansoni [15]): 5.41 µM | IC90 (Schistosoma mansoni [15]): 13.7 µM
